# Experimental data as given in PMC10529594, “Strasseriolides display in vitro and in vivo activity against trypanosomal parasites and cause morphological and size defects in Trypanosoma cruzi” (PLOS Neglected Tropical Diseases, 2023).
# Counter-ions that a name gives are not always drawn. Like-named read-outs stand apart in the source and are kept apart here.
# What was measured:
# [1] = system: L. donovani MHOM/ET/67/HU3 transgenic intracellular amastigotes; test: L. donovani intracellular amastigote assay (luciferase, THP-1 macrophages); format: cell-based; settings: Leishmania donovani, THP-1, 72 h, read-out: EC50 L. donovani
# Procedure: Leishmania donovani MHOM/ET/67/HU3 cells with the luciferase gene integrated into the parasite genome was obtained as described. Parasites were grown at 28°C in RPMI 1640-modified medium supplemented with 20% heat-inactivated fetal bovine serum (iFBS, Invitrogen) with […] of hygromycin B.
# THP-1 cells were differentiated into macrophages with 20 ng/mL of PMA in a 96-well plate at 3 × 10^4 cells per well for 48 hours followed by 24 hours of culture in fresh medium. Cells were then infected with transgenic stationary L. donovani MHOM/ET/67/HU3 promastigotes expressing the luciferase gene at a multiplicity of infection (MOI) of 10. A volume of 100 μL of culture media containing the test compounds was added to each well and the plates were incubated at 37°C for 72 hours. Luminescence was measured using the Promega kit luciferase assay system.
# [2] = system: intracellular T. cruzi amastigotes; test: Rate of kill, intracellular T. cruzi amastigotes (CPRG, 96-well); format: cell-based, Trypanosoma cruzi; settings: Amastigotes; for EC50: Trypanosoma cruzi
# Procedure: For rate of kill experiments, in vitro activity against intracellular T. cruzi amastigotes was analyzed at early time points: 24, 48 and 72 hours. The standard colorimetric transgenic assay was established in a 96-well format, with serial dilutions of compounds and 0.05% as the final maximal DMSO percentage per well. In these experiments L6 host cells were included as negative controls and CPRG conversion was monitored at 585 nm using a Versamax microplate reader (Molecular devices).
# [3] = system: T. cruzi trypomastigotes; test: T. cruzi trypomastigote viability / rate of action assay (CellTiter-Glo bioluminescence); format: cell-based, Trypanosoma cruzi; settings: for EC50: Trypanosoma cruzi, read-out: EC50; for EC50 / EC90/EC50 / Hill slope: Trypomastigotes
# Procedure: Tulahuen T. cruzi trypomastigotes were recovered 6 days post infection from the supernatant of harvested infected L6 cells cultures after 3 hours at 37°C. 90 μL of parasite culture at a density of 5 × 10^6 cells in RPMI 1640 media were dispensed into 96 Nunc flat bottom assay plates containing 10 μL of each compound.
# Parasite viability was assessed upon 24, 48 and 72 hour incubation at 37°C in 5% CO2 by adding 50 μL of CellTiter-Glo viability reagent to white 96-well microplates. After signal stabilization, bioluminescence was read. Compound concentrations ranged from 0.1 μM to 50 μM and final maximal DMSO percentage in the well was 0.05%. Results were normalized to […] control columns in each plate.
# [4] = system: T. b. brucei 427 bloodstream forms; test: Resazurin-based T. b. brucei assay; format: cell-based; settings: Trypanosoma brucei; T. b. brucei 427 bloodstream forms, 72 h; read-out: EC50 T. brucei
# Procedure: Parasites strains adapted to culture in vitro were used. T. b. brucei Lister 427 bloodstream form parasites (information about the identity and genealogy of this strain is available at The Rockefeller University website) were grown in HMI-9 medium supplemented with 10% heat-inactivated fetal bovine serum (iFBS).
# Cells in logarithmic phase of growth were added using a Multidrop dispenser (45 μL, 500 bloodstream T. b. brucei parasites per well) to 384-well Corning assay plates already containing 5 μL of each compound and controls, and incubated for 72 hours at 37°C. 10 μL of resazurin were added per well, and the plates were further incubated for 6 hours at 37°C. The final fluorescence was determined at 550–590 nm. Pentamidine at 40 nM and 0.0067% DMSO were used as […] growth controls, respectively.
structure (smiles),measurement,setting,value
"C[C@@H]1[C@H](O)[C@@H](C)/C=C/C=C/C=C/C=C/C=C/C=C/C=C/[C@H](O[C@@H]2O[C@H](C)[C@@H](O)[C@H](N)[C@@H]2O)C[C@@H]2O[C@](O)(C[C@@H](O)C[C@@H](O)[C@H](O)CC[C@@H](O)C[C@@H](O)CC(=O)O[C@H]1C)C[C@H](O)[C@H]2C(=O)O [Amphotericin B, amphotericin B, reference compound]",EC50,[1],53 nM
"CC1CS(=O)(=O)CCN1/N=C/c1ccc([N+](=O)[O-])o1 (stereo not shown) [Nifurtimox, nifurtimox]",EC90/EC50,[2]; 24 h,4.07
same,Hill slope,[2]; 24 h,1.60
same,EC90/EC50,[2]; 48 h,4.16
same,Hill slope,[2]; 48 h,1.55
same,EC90/EC50,[2]; 72 h,3.03
same,Hill slope,[2]; 72 h,1.98
same,EC50,[2]; 24 h,300 nM
same,EC50,[2]; 48 h,150 nM
same,EC50,[2]; 72 h,130 nM
same,"RLU Average, trypomastigote viability","[3]; 24 h, 0.0195312 µM, untreated 165759",169266 RLU
same,"RLU Average, trypomastigote viability","[3]; 24 h, 0.0390625 µM, untreated 165759",166443 RLU
same,"RLU Average, trypomastigote viability","[3]; 24 h, 0.078125 µM, untreated 165759",165831 RLU
same,"RLU Average, trypomastigote viability","[3]; 24 h, 0.15625 µM, untreated 165759",160072 RLU
same,"RLU Average, trypomastigote viability","[3]; 24 h, 0.3125 µM, untreated 165759",149962 RLU
same,"RLU Average, trypomastigote viability","[3]; 24 h, 0.625 µM, untreated 165759",139314 RLU
same,"RLU Average, trypomastigote viability","[3]; 24 h, 1.25 µM, untreated 165759",111524 RLU
same,"RLU Average, trypomastigote viability","[3]; 24 h, 2.5 µM, untreated 165759",65827 RLU
same,"RLU Average, trypomastigote viability","[3]; 24 h, 5 µM, untreated 165759",11749 RLU
same,"RLU Average, trypomastigote viability","[3]; 24 h, 10 µM, untreated 165759",1446 RLU
same,"RLU Average, trypomastigote viability","[3]; 48 h, 0.0195312 µM, untreated 134778",139199 RLU
same,"RLU Average, trypomastigote viability","[3]; 48 h, 0.0390625 µM, untreated 134778",135603 RLU
same,"RLU Average, trypomastigote viability","[3]; 48 h, 0.078125 µM, untreated 134778",135814 RLU
same,"RLU Average, trypomastigote viability","[3]; 48 h, 0.15625 µM, untreated 134778",121189 RLU
same,"RLU Average, trypomastigote viability","[3]; 48 h, 0.3125 µM, untreated 134778",101689 RLU
same,"RLU Average, trypomastigote viability","[3]; 48 h, 0.625 µM, untreated 134778",74973 RLU
same,"RLU Average, trypomastigote viability","[3]; 48 h, 1.25 µM, untreated 134778",27237 RLU
same,"RLU Average, trypomastigote viability","[3]; 48 h, 2.5 µM, untreated 134778",4248 RLU
same,"RLU Average, trypomastigote viability","[3]; 48 h, 5 µM, untreated 134778",1304 RLU
same,"RLU Average, trypomastigote viability","[3]; 48 h, 10 µM, untreated 134778",430 RLU
same,"RLU Average, trypomastigote viability","[3]; 72 h, 0.0195312 µM, untreated 74303",78773 RLU
same,"RLU Average, trypomastigote viability","[3]; 72 h, 0.0390625 µM, untreated 74303",76780 RLU
same,"RLU Average, trypomastigote viability","[3]; 72 h, 0.078125 µM, untreated 74303",75817 RLU
same,"RLU Average, trypomastigote viability","[3]; 72 h, 0.15625 µM, untreated 74303",65552 RLU
same,"RLU Average, trypomastigote viability","[3]; 72 h, 0.3125 µM, untreated 74303",53878 RLU
same,"RLU Average, trypomastigote viability","[3]; 72 h, 0.625 µM, untreated 74303",44434 RLU
same,"RLU Average, trypomastigote viability","[3]; 72 h, 1.25 µM, untreated 74303",6874 RLU
same,"RLU Average, trypomastigote viability","[3]; 72 h, 2.5 µM, untreated 74303",861 RLU
same,"RLU Average, trypomastigote viability","[3]; 72 h, 5 µM, untreated 74303",764 RLU
same,"RLU Average, trypomastigote viability","[3]; 72 h, 10 µM, untreated 74303",553 RLU
same,EC50,[3]; 24 h,2080 nM
same,EC50,[3]; 48 h,640 nM
same,EC50,[3]; 72 h,600 nM
same,EC90/EC50,[3]; 24 h,4.04
same,Hill slope,[3]; 24 h,1.58
same,EC90/EC50,[3]; 48 h,3.61
same,Hill slope,[3]; 48 h,1.71
same,EC90/EC50,"[3]; 48 h, listed as nifurtimox",3.6
same,Hill slope,"[3]; 48 h, listed as nifurtimox",below 2.1
same,EC90/EC50,[3]; 72 h,3.33
same,Hill slope,[3]; 72 h,1.83
same,EC90/EC50,"[3]; 72 h, listed as nifurtimox",3.3
same,Hill slope,"[3]; 72 h, listed as nifurtimox",below 2.1
"N=C(N)c1ccc(OCCCCCOc2ccc(C(=N)N)cc2)cc1 [Pentamidine, pentamidine isethionate salt, reference compound]",EC50,[4],2 nM
"CC[C@@H]([C@H](C)O)n1ncn(-c2ccc(N3CCN(c4ccc(OC[C@@H]5CO[C@@](Cn6cncn6)(c6ccc(F)cc6F)C5)cc4)CC3)cc2)c1=O [Posaconazole, posaconazole]",EC90/EC50,[2]; 24 h,5.16
same,Hill slope,[2]; 24 h,1.33
same,EC90/EC50,[2]; 48 h,6.41
same,Hill slope,[2]; 48 h,1.20
same,EC90/EC50,[2]; 72 h,1.83
same,Hill slope,[2]; 72 h,3.65
same,EC50,[2]; 24 h,5410 nM
same,EC50,[2]; 48 h,0.8 nM
same,EC50,[2]; 72 h,0.7 nM
same,effect against extracellular forms (trypomastigotes),"[3]; 2 μM, 24 and 48 hours",no effect
